Test results: US20010001101A1, “Phenanthroline derivatives” (Zeneca Limited, priority 1997, published 2001)

How the values were obtained:
[1] = test system: embryonic chick tendon cells; test: embryonic chick tendon cells: inhibition of hydroxylation of prolyl residues within collagen (test (b)); format: cell-based; conditions: Gallus gallus, hydroxylation of prolyl residues in collagen
Procedure: (b) An in vitro assay system involving incubating embryonic chick tendon cells in the presence of a test compound and measuring the inhibition of hydroxylation at the 4-position of prolyl residues within the available collagen. The embryonic chick tendon cells were prepared from the leg tendons of 17-day chick embryos using the method of P. Dehm and D. Prockop (Biochem. Biophys Acta, 240:358 (1971)). The cells were incubated in the presence of [^14C]- and [^3H]-labelled L-proline and the extent of hydroxylation at the 4-trans-position of the prolyl residues within the collagen was determined using the procedure described by T. J. Franklin and M. Hitchen (Biochem. J, 261:127-130 (1989)).

3T6 cells = test: 3T6 cells: inhibition of hydroxylation of prolyl residues within collagen (test (c)); format: cell-based; conditions: hydroxylation of prolyl residues in collagen
Procedure: (c) An in vitro assay involving incubating cultures of 3T6 cells with a test compound and [^14C]- and [^3H]-labelled L-proline, and measuring the inhibition of hydroxylation at the 4-trans-position of prolyl residues within the available collagen using the procedure described by T. J. Franklin and M. Hitchen (Biochem. J., 261:127-130 (1989)).

[2] = test system: collagen within the uteri of immature female rats; test: in vivo inhibition of prolyl hydroxylation within collagen in uteri of immature female rats (test (d)); conditions: Rattus norvegicus, po; 50 mg/kg orally, compound dosed 2 hours before proline administration
Procedure: (d) An in vivo assay involving the measurement of the inhibition by a test compound of hydroxylation at the 4-trans-position of prolyl residues within collagen within the uteri of immature (20-21 day) female rats. The test compounds were administered either orally or intraperitoneally to the rats in which uterine collagen synthesis had been stimulated by the subcutaneous administration of a solution of oestradiol benzoate (0.5 μg on each of two successive days) in arachis […] oil. The rats were dosed with 5 μCuries of [^14C]-L-proline and the uteri were taken 2 hours after the dosing of the radiolabelled proline and sonicated. Collagen was extracted by treatment of the tissue with water at 120° C. for 1 hour in an autoclave and hydrolysed by treatment with 6N hydrochloric acid for 18 hours at reflux temperature. The proline and 4-hydroxyproline residues were separated by column chromatography on a reversed-phase Spherisorb S5ODS1 column using as eluent a 89.9:10:0.1 v/v mixture of water:isopropanol:trifluoroacetic acid to which 0.3% w/v of sodium dodecylsulphate had been added. The ratio of radioactivity found in each of the proline and 4-hydroxyproline fractions was determined by liquid scintillation counting to allow the measurement of the inhibition of hydroxylation by a test compound.

prolyl 4-hydroxylase = molecular target: T1, prolyl 4-hydroxylase (Gallus gallus, UniProt P16924); test: in vitro enzyme assay, cell free, highly purified prolyl 4-hydroxylase (test (a)); format: biochemical
T1 construct: a highly purified preparation of prolyl 4-hydroxylase; from tissue; chick embryos according to the cited method (own knowledge)
T1 sequence (P16924 1-516): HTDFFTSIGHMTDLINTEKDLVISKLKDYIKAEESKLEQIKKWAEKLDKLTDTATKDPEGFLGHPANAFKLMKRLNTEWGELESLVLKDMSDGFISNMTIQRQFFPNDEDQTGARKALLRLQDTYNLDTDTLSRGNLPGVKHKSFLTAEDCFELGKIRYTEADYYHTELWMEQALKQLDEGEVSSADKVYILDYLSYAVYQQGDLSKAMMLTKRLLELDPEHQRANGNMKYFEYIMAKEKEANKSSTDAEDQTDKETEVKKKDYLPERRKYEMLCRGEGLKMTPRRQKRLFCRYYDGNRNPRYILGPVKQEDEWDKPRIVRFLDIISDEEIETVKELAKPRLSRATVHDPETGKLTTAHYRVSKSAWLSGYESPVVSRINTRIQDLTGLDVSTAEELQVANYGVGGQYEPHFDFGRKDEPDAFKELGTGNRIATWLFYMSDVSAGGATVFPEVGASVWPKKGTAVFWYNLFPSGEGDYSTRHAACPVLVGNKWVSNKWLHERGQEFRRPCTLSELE
T1 sequence (P09102 23-515 partner): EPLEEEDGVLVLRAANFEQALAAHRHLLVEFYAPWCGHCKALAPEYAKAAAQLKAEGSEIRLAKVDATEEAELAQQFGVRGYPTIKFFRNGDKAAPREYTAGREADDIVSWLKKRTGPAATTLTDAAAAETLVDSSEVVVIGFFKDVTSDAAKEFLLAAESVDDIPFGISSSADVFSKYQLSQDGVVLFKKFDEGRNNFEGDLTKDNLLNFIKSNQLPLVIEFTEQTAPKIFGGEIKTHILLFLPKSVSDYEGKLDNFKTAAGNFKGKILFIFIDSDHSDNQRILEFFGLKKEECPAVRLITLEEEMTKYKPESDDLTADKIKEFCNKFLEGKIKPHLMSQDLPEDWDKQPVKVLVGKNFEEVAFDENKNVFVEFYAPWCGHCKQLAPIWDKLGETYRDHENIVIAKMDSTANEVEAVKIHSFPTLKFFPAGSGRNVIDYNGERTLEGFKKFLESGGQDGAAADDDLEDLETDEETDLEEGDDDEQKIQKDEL
Procedure: (a) An in vitro enzyme assay system, which assesses the inhibitory properties of a test compound in a cell free system using a highly purified preparation of prolyl 4-hydroxylase. The enzyme preparation was obtained using the method described by N. Kedersha and R. Berg (Collagen Related Research, 1:345 (1981)) and the activity of a test compound was measured using the method described by C. J. Cunliffe, T. J. Franklin and R. Gaskell (Biochem. J., 240:617 (1986)).

dermal punch wound = test: dermal wound healing, rat punch model; format: in vivo; conditions: compared to control
Procedure: FIG. 5 illustrates wound area after treatment of Compound 3 in the dermal punch model.
(§1) The effectiveness of the compounds in dermal wound healing was tested using two wound healing models—rat punch model and rat incisional model—as described above.

[3] = test system: granulation tissue in wound chamber; test: in vivo wound chamber model; set-up: species or system rat
Procedure: (e) An in vivo wound chamber model involving the measurement of histological changes in granulation tissue. The test compounds were tested in rats according to the procedures generally described in Schilling et al., Surgery 46(4):702-710 (1959), Hunt et al., Am. J. Surgery 114:302-307 (1967), and Grotendorst et al., J. Clin Inves. 76:2323-2329 (1985). More specifically, stainless wire mesh cylinders were implanted subcutaneously under the back skin of rats (two chambers per animal). The compounds of the present invention were then dissolved in DMSO and injected into each chamber on a daily basis at various concentrations from either day 0-14 or day 7-14. On day 14, the chambers were collected and the granulation tissues contained within the chambers were collected for biochemical (collagen content) or histological evaluation.
Following the in vivo wound chamber model described above, fourteen of the claimed compounds tested to determine the effectiveness of the claimed compounds in inhibiting collagen deposition in the wound chamber.

[4] = test system: balloon injured carotid arteries; test: rat restenosis model (balloon carotid artery injury); format: in vivo; conditions: 50 mg/kg oral gavage twice daily day 0-14; day 14
Description: (§2) (f) Various in vivo animal models to determine the applicability of utilizing the compounds of the present invention to treat fibrotic disorders specific to certain cell types or organs. For example, a cardiac fibrosis model in rats, as generally described in Kondo et al., Cardiovascu. Res. 21:248-254 (1987), and Benjamin et al., Circulation Res. 65(3):657-670 (1989), may be used to measure the effectiveness of the compounds of the present invention to inhibit cardiac fibrosis, as well as provide evidence of the regeneration of cardiac cells upon inhibition of fibrotic cell proliferation. Similarly, the left carotid artery injury model, as described generally in Clowes et al., Lab Invest. 49:327-33 (1983), Muller et al., Am. Col. Cardio. 19(2):418 (1992), and Jackson, Trends Cardiovasc. Med. 4:122-130 (1994), may be used to determine the effectiveness of the compounds of the instant invention in vascular remodeling. […]
The effectiveness of Compound 12 in vascular remodeling, as determined in a rat restenosis model, was determined by using a left carotid artery injury rat model, as generally described above. […]

[5] = test system: isoproterenol-induced myocardial fibrosis; test: rat isoproterenol-induced myocardial fibrosis model; format: in vivo; conditions: left ventricular function at week 6; 50 mg/kg oral gavage twice daily day 4 to day 11
Description: as §2, with “Col.” for “Col. Cardio. 19(2):418 (1992), and Jackson, Trends Cardiovasc. Med. 4:122-130 (1994), may be used to determine the effectiveness of the compounds of the instant invention in vascular remodeling.”
The effectiveness of one of the compounds of the present invention to inhibit cardiac fibrosis and permit the regeneration of cardiac cells was tested in the cardiac fibrosis model generally described above. […] The compound was administered after suspension in 1% CMC at 50 mg/kg by oral gavage twice daily from day 4 to day 11 and histological data was evaluated on day 11 by general histology (H&E and trichrome) and immunohistochemical staining for proliferating cell nuclear antigen (PCNA). Cardiac function (left ventricular function) was measured by inserting a catheter into the left ventricle for measurement of relaxation and contraction pressure on week 6.

[6] = test system: kidney fibrosis after Adriamycin injection; test: kidney fibrosis rat model (Adriamycin); format: in vivo
Description: (f) Various in vivo animal models to determine the applicability of utilizing the compounds of the present invention to treat fibrotic disorders specific to certain cell types or organs. For example, a cardiac fibrosis model in rats, as generally described in Kondo et al., Cardiovascu. Res. 21:248-254 (1987), and Benjamin et al., Circulation Res. 65(3):657-670 (1989), may be used to measure the effectiveness of the compounds of the present invention to inhibit cardiac fibrosis, as well as provide evidence of the regeneration of cardiac cells upon inhibition of fibrotic cell proliferation. Similarly, the left carotid artery injury model, as described generally in Clowes et al., Lab Invest. 49:327-33 (1983), Muller et al., Am. Col. Cardio. 19(2):418 (1992), and Jackson, Trends Cardiovasc. Med. 4:122-130 (1994), may be used to determine the effectiveness of the compounds of the instant invention in vascular remodeling. Other models, such as in vivo brain injury models (see e.g., Berry et al., Acto Neurochrurgica, Suppl., 32:31-53 (1993), Logan et al., Brain Research 587:216-255 (1992)), in vivo kidney fibrosis models (see e.g., DiDonato et al., Nephron 76(2):192-200 (1997), in vivo post-surgical abdominal adhesions model (see e.g., Cohen et al., J. Trauma 30(12):S149-154 (1990), Stein & Keiser, J. Surg. Res. 11:277 (1971), Diegelman et al., J. Surg. Res. 19:239-43 (1975)) may be used to determine the effectiveness of the compounds of the instant invention to treat fibrotic disorders related to the brain, kidney, abdomen and dermis, as well as provide information related to the treatment of other major organs.
The effectiveness of the compounds of the instant invention to treat kidney fibrosis was determined using a kidney fibrosis rat model, as generally described above. More specifically, male SD rats weighing approximately 200-225 g each were injected intravenously with Adriamycin (Pharmacia, MI) on day 1 and again on day 15. The Adriamycin was dissolved in 0.5 ml sterile physiologic saline and infused slowly into the tail vein to ensure complete delivery and to avoid perivascular tissue destruction of the drug.
Three treatment groups were established following Adriamycin injections. The rats were randomly assigned to receive a twice daily gavage of Compound 12 or control (1% CMC). Five animals from each group were sacrificed on week 6, 8 or 12.

[7] = test system: scar tissue in the brain following injury; test: brain injury model; format: in vivo, rat; conditions: oral gavage twice daily day 0 to 14, day 14
Description: as §2

dermal incisional wound = test: dermal wound healing, rat incisional model; format: in vivo; conditions: compared to control
Procedure: FIG. 6 illustrates the tensile strength on dermal incisional wound on day 7 after oral treatment of Compound 3 and Compound 12.
FIG. 7 illustrates the tensile strength of incisional wound after local injections of Compound 12.
as §1

IC50 (3T6 cells) [µM] | melting point [°C] | IC50 (prolyl 4-hydroxylase) [nM] | Compound | IC50 [1] [nM] | inhibition at 50 mg/kg [2] [%] | healing time (dermal punch wound) | response vs control in vivo at 0.05 mg ([3]; Rattus norvegicus, 50 μg dosage, injected into chamber daily, day 7-14 treatment, read-out: Mean Collagen content (% of Control) On Day 14) [%] | apoptotic cell numbers (positive staining of apoptotic cells) ([3]; wound chamber) | rebound of collagen accumulation after discontinuing administration ([3]; wound chamber, at higher doses) | development of neointimal formation [4] | Contraction pressure (dP/dt, mm Hg) [5] [mm Hg] | Relaxation pressure (Min-P, mm Hg) [5] [mm Hg] | development of renal hypertension ([6]; twice daily gavage, versus control) | development of kidney fibrosis (histology) ([6]; twice daily gavage, versus control (1% CMC)) | Cardiac function ([6]; week 12) | long term toxicity, as measured by mean body weight and bone density ([6]; week 12) | activation of astrocytes ([7]; GFAP staining) | collagen deposition in the scar ([7]; type I collagen staining) | tensile strength of wound (dermal incisional wound)
5.4 | 236 to 237 | 400 | CCCCN(CC)C(=O)c1cnc2c3c(ccc2c1)C(=O)C(C(=O)O)C=N3 (stereo not shown) [Example 2, 8-(N-butyl-N-ethylcarbamoyl)-3-carboxy-4-oxo-3,4-dihydro-1,10-phenanthroline] | 1200 | 46 | – | – | – | – | – | – | – | – | – | – | – | – | – | –
– | – | – | O=C(O)C1C=Nc2c(ccc3cccnc23)C1=O (stereo not shown) [Compound 12, 3-carboxy-4-oxo-3,4-dihydro-1,10-phenanthroline] | – | – | increased healing time | 80.7 | dose-dependently increased positive staining of apoptotic cells | prevented rebound of collagen accumulation | significantly reduce the development of neointimal formation | 5770 ± 95.1 | 2.7 ± 0.8 | blocked the development of renal hypertension | prevented the development of kidney fibrosis | improved | not material | decreased the activation of actrocytes | reduced collagen deposition in the scar | reduced tensil strength
